# Results taken from patent publication US20230143604A1, “QW DOSING OF GIP RECEPTOR AGONIST PEPTIDE COMPOUNDS AND USES THEREOF” (TAKEDA PHARMACEUTICAL COMPANY LIMITED, priority 2020, published 2023).
# Starred links: 1 amine or outer side, 2 acyl side, 3 side chain; linkers in the order of their positions; H or OH if unused. Non-standard residues stand in square brackets, D forms with d. Residues, ends and D or L forms follow the SMILES beside them. Groups on a side chain read outwards from the residue. *: point of attachment. C18 diacid = O=C(O)CCCCCCCCCCCCCCCCC(=O)*; C17 diacid = O=C(O)CCCCCCCCCCCCCCCC(=O)*; γGlu = O=C(O)[C@H](CCC(=O)[*:2])N[*:1]; NMeY = CN[C@@H](Cc1ccc(O)cc1)C(=O)O; AEEA = NCCOCCOCC(=O)O; Aib = CC(C)(N)C(=O)O
# Assay: physchem
# Settings: pH 7.4, aqueous buffer
# Method in brief: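 3 mg of peptide treated with 100 μL portions of 200 mM phosphate buffer pH 7.4, sonicating/vortexing up to 1 min, with further buffer added until fully dissolved. Solubility then quantified by HPLC.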
row,SMILES,solubility [µg/mL]
1,CC[C@H](C)[C@H](NC(=O)[C@H](CO)NC(=O)[C@H](Cc1ccc(O)cc1)NC(=O)[C@H](CC(=O)O)NC(=O)[C@H](CO)NC(=O)[C@@H](NC(=O)[C@H](Cc1ccccc1)NC(=O)[C@@H](NC(=O)CNC(=O)[C@H](CCC(=O)O)NC(=O)C(C)(C)NC(=O)[C@H](Cc1ccc(O)cc1)NC)[C@@H](C)O)[C@@H](C)CC)C(=O)N[C@@H](C)C(=O)N[C@@H](CC(C)C)C(=O)N[C@@H](CC(=O)O)C(=O)N[C@@H](CCCNC(=N)N)C(=O)N[C@H](C(=O)N[C@@H](Cc1c[nH]cn1)C(=O)N[C@@H](CCC(N)=O)C(=O)NC(C)(C)C(=O)N[C@@H](CC(N)=O)C(=O)N[C@@H](Cc1ccccc1)C(=O)N[C@H](C(=O)N[C@@H](CC(N)=O)C(=O)N[C@@H](Cc1c[nH]c2ccccc12)C(=O)N[C@@H](CC(C)C)C(=O)N[C@@H](CC(C)C)C(=O)N[C@@H](C)C(=O)N[C@@H](CCC(N)=O)C(=O)N[C@@H](CCCCNC(=O)COCCOCCNC(=O)COCCOCCNC(=O)CC[C@H](NC(=O)CCCCCCCCCCCCCCCCC(=O)O)C(=O)O)C(=O)O)C(C)C)[C@@H](C)CC [Compound 248] (H-[NMeY][Aib]EGTFISDYSIALDRIHQ[Aib]NFVNWLLAQK([AEEA-AEEA-γGlu-C18 diacid])-OH; C-terminus assumed),≥ 6800
2,CC[C@H](C)[C@H](NC(=O)[C@H](CO)NC(=O)[C@H](Cc1ccc(O)cc1)NC(=O)[C@H](CC(=O)O)NC(=O)[C@H](CO)NC(=O)[C@@H](NC(=O)[C@H](Cc1ccccc1)NC(=O)[C@@H](NC(=O)CNC(=O)[C@H](CCC(=O)O)NC(=O)C(C)(C)NC(=O)[C@@H](N)Cc1ccc(O)cc1)[C@@H](C)O)[C@@H](C)CC)C(=O)N[C@@H](C)C(=O)N[C@@H](CC(C)C)C(=O)N[C@@H](CC(=O)O)C(=O)N[C@@H](CCCNC(=N)N)C(=O)N[C@H](C(=O)N[C@@H](Cc1c[nH]cn1)C(=O)N[C@@H](CCC(N)=O)C(=O)N[C@@H](CCC(N)=O)C(=O)N[C@@H](CC(N)=O)C(=O)N[C@@H](Cc1ccccc1)C(=O)N[C@H](C(=O)N[C@@H](CC(N)=O)C(=O)N[C@@H](Cc1c[nH]c2ccccc12)C(=O)N[C@@H](CC(C)C)C(=O)N[C@@H](CC(C)C)C(=O)N[C@@H](C)C(=O)N[C@@H](CCC(N)=O)C(=O)N[C@@H](CCCCNC(=O)COCCOCCNC(=O)COCCOCCNC(=O)CC[C@H](NC(=O)CCCCCCCCCCCCCCCCC(=O)O)C(=O)O)C(=O)O)C(C)C)[C@@H](C)CC [Compound 249] (H-Y[Aib]EGTFISDYSIALDRIHQQNFVNWLLAQK([AEEA-AEEA-γGlu-C18 diacid])-OH; N-terminus and C-terminus assumed),≥ 6800
3,CC[C@H](C)[C@H](NC(=O)[C@H](CO)NC(=O)[C@H](Cc1ccc(O)cc1)NC(=O)[C@H](CC(=O)O)NC(=O)[C@H](CO)NC(=O)[C@@H](NC(=O)[C@H](Cc1ccccc1)NC(=O)[C@@H](NC(=O)CNC(=O)[C@H](CCC(=O)O)NC(=O)C(C)(C)NC(=O)[C@H](Cc1ccc(O)cc1)NC)[C@@H](C)O)[C@@H](C)CC)C(=O)N[C@@H](C)C(=O)N[C@@H](CCCCNC(=O)CNC(=O)CNC(=O)CNC(=O)CNC(=O)CNC(=O)CCCCCCCCCCCCCCCCC(=O)O)C(=O)N[C@@H](CC(=O)O)C(=O)N[C@@H](CCCNC(=N)N)C(=O)NC(C)(C)C(=O)N[C@@H](C)C(=O)N[C@@H](CCC(N)=O)C(=O)NC(C)(C)C(=O)N[C@@H](CC(N)=O)C(=O)N[C@@H](Cc1ccccc1)C(=O)N[C@H](C(=O)N[C@@H](CC(N)=O)C(=O)N[C@@H](Cc1c[nH]c2ccccc12)C(=O)N[C@@H](CC(C)C)C(=O)N[C@@H](CC(C)C)C(=O)N[C@@H](C)C(=O)N[C@@H](CCC(N)=O)C(=O)N[C@@H](CCCNC(=N)N)C(N)=O)C(C)C [Compound 250],≥ 700
4,CC[C@H](C)[C@H](NC(=O)[C@H](CO)NC(=O)[C@H](Cc1ccc(O)cc1)NC(=O)[C@H](CC(=O)O)NC(=O)[C@H](CO)NC(=O)[C@@H](NC(=O)[C@H](Cc1ccccc1)NC(=O)[C@@H](NC(=O)CNC(=O)[C@H](CCC(=O)O)NC(=O)C(C)(C)NC(=O)[C@H](Cc1ccc(O)cc1)NC)[C@@H](C)O)[C@@H](C)CC)C(=O)N[C@@H](C)C(=O)N[C@@H](CCCCNC(=O)CNC(=O)CNC(=O)CNC(=O)CNC(=O)CNC(=O)CCCCCCCCCCCCCCCCC(=O)O)C(=O)N[C@@H](CC(=O)O)C(=O)N[C@@H](CCCNC(=N)N)C(=O)NC(C)(C)C(=O)N[C@@H](C)C(=O)N[C@@H](CCC(N)=O)C(=O)NC(C)(C)C(=O)N[C@@H](CC(N)=O)C(=O)N[C@@H](Cc1ccccc1)C(=O)N[C@H](C(=O)N[C@@H](CC(N)=O)C(=O)N[C@@H](Cc1c[nH]c2ccccc12)C(=O)N[C@@H](CC(C)C)C(=O)N[C@@H](CC(C)C)C(=O)N[C@@H](C)C(=O)N[C@@H](CCC(N)=O)C(=O)N[C@@H](CCCNC(=N)N)C(=O)O)C(C)C [Compound 251],≥ 7000
5,CC[C@H](C)[C@H](NC(=O)[C@H](CCCNC(=N)N)NC(=O)[C@H](CC(=O)O)NC(=O)[C@H](CCCCNC(=O)COCCOCCNC(=O)COCCOCCNC(=O)CC[C@H](NC(=O)CCCCCCCCCCCCCCCCC(=O)O)C(=O)O)NC(=O)[C@H](C)NC(=O)[C@@H](NC(=O)[C@H](CO)NC(=O)[C@H](Cc1ccc(O)cc1)NC(=O)[C@H](CC(=O)O)NC(=O)[C@H](CO)NC(=O)[C@@H](NC(=O)[C@H](Cc1ccccc1)NC(=O)[C@@H](NC(=O)CNC(=O)[C@H](CCC(=O)O)NC(=O)C(C)(C)NC(=O)[C@H](Cc1ccc(O)cc1)NC)[C@@H](C)O)[C@@H](C)CC)[C@@H](C)CC)C(=O)N[C@@H](C)C(=O)N[C@@H](CCC(N)=O)C(=O)NC(C)(C)C(=O)N[C@@H](CC(N)=O)C(=O)N[C@@H](Cc1ccccc1)C(=O)N[C@H](C(=O)N[C@@H](CC(N)=O)C(=O)N[C@@H](Cc1c[nH]c2ccccc12)C(=O)N[C@@H](CC(C)C)C(=O)N[C@@H](CC(C)C)C(=O)N[C@@H](C)C(=O)N[C@@H](CCC(N)=O)C(=O)N[C@@H](CCCNC(=N)N)C(N)=O)C(C)C [Compound 252] (H-[NMeY][Aib]EGTFISDYSIAK([AEEA-AEEA-γGlu-C18 diacid])DRIAQ[Aib]NFVNWLLAQR-NH2),≥ 7300
6,CC[C@H](C)[C@H](NC(=O)[C@H](CO)NC(=O)[C@H](Cc1ccc(O)cc1)NC(=O)[C@H](CC(=O)O)NC(=O)[C@H](CO)NC(=O)[C@@H](NC(=O)[C@H](Cc1ccccc1)NC(=O)[C@@H](NC(=O)CNC(=O)[C@H](CCC(=O)O)NC(=O)C(C)(C)NC(=O)[C@H](Cc1ccc(O)cc1)NC)[C@@H](C)O)[C@@H](C)CC)C(=O)N[C@@H](C)C(=O)N[C@@H](CCCCNC(=O)COCCOCCNC(=O)COCCOCCNC(=O)CC[C@H](NC(=O)CCCCCCCCCCCCCCCCC(=O)O)C(=O)O)C(=O)N[C@@H](CC(=O)O)C(=O)N[C@@H](CCCNC(=N)N)C(=O)NC(C)(C)C(=O)N[C@@H](C)C(=O)N[C@@H](CCC(N)=O)C(=O)N[C@@H](CCC(N)=O)C(=O)N[C@@H](CC(N)=O)C(=O)N[C@@H](Cc1ccccc1)C(=O)N[C@H](C(=O)N[C@@H](CC(N)=O)C(=O)N[C@@H](Cc1c[nH]c2ccccc12)C(=O)N[C@@H](CC(C)C)C(=O)N[C@@H](CC(C)C)C(=O)N[C@@H](C)C(=O)N[C@@H](CCC(N)=O)C(=O)N[C@@H](CCCNC(=N)N)C(N)=O)C(C)C [Compound 253] (H-[NMeY][Aib]EGTFISDYSIAK([AEEA-AEEA-γGlu-C18 diacid])DR[Aib]AQQNFVNWLLAQR-NH2),≥ 7400
7,CC[C@H](C)[C@H](NC(=O)[C@H](CO)NC(=O)[C@H](Cc1ccc(O)cc1)NC(=O)[C@H](CC(=O)O)NC(=O)[C@H](CO)NC(=O)[C@@H](NC(=O)[C@H](Cc1ccccc1)NC(=O)[C@@H](NC(=O)CNC(=O)[C@H](CCC(=O)O)NC(=O)C(C)(C)NC(=O)[C@H](Cc1ccc(O)cc1)NC)[C@@H](C)O)[C@@H](C)CC)C(=O)N[C@@H](C)C(=O)N[C@@H](CCCCNC(=O)COCCOCCNC(=O)COCCOCCNC(=O)CC[C@H](NC(=O)CCCCCCCCCCCCCCCCC(=O)O)C(=O)O)C(=O)N[C@@H](CC(=O)O)C(=O)N[C@@H](CCCNC(=N)N)C(=O)NC(C)(C)C(=O)N[C@@H](C)C(=O)N[C@@H](CCC(N)=O)C(=O)NC(C)(C)C(=O)N[C@@H](CC(N)=O)C(=O)N[C@@H](Cc1ccccc1)C(=O)N[C@H](C(=O)N[C@@H](CC(N)=O)C(=O)N[C@@H](Cc1c[nH]c2ccccc12)C(=O)N[C@@H](CC(C)C)C(=O)N[C@@H](CC(C)C)C(=O)N[C@@H](C)C(=O)N[C@@H](CCC(N)=O)C(=O)N[C@@H](CCCNC(=N)N)C(N)=O)C(C)C [Compound 254] (H-[NMeY][Aib]EGTFISDYSIAK([AEEA-AEEA-γGlu-C18 diacid])DR[Aib]AQ[Aib]NFVNWLLAQR-NH2),≥ 7200
8,CC[C@H](C)[C@H](NC(=O)[C@H](CO)NC(=O)[C@H](Cc1ccc(O)cc1)NC(=O)[C@H](CC(=O)O)NC(=O)[C@H](CO)NC(=O)[C@@H](NC(=O)[C@H](Cc1ccccc1)NC(=O)[C@@H](NC(=O)CNC(=O)[C@H](CCC(=O)O)NC(=O)C(C)(C)NC(=O)[C@H](Cc1ccc(O)cc1)NC)[C@@H](C)O)[C@@H](C)CC)C(=O)N[C@@H](C)C(=O)N[C@@H](CCCCNC(=O)COCCOCCNC(=O)COCCOCCNC(=O)CC[C@H](NC(=O)CCCCCCCCCCCCCCCC(=O)O)C(=O)O)C(=O)N[C@@H](CC(=O)O)C(=O)N[C@@H](CCCNC(=N)N)C(=O)NC(C)(C)C(=O)N[C@@H](C)C(=O)N[C@@H](CCC(N)=O)C(=O)NC(C)(C)C(=O)N[C@@H](CC(N)=O)C(=O)N[C@@H](Cc1ccccc1)C(=O)N[C@H](C(=O)N[C@@H](CC(N)=O)C(=O)N[C@@H](Cc1c[nH]c2ccccc12)C(=O)N[C@@H](CC(C)C)C(=O)N[C@@H](CC(C)C)C(=O)N[C@@H](C)C(=O)N[C@@H](CCC(N)=O)C(=O)N[C@@H](CCCCN)C(=O)O)C(C)C [Compound 255] (H-[NMeY][Aib]EGTFISDYSIAK([AEEA-AEEA-γGlu-C17 diacid])DR[Aib]AQ[Aib]NFVNWLLAQK-OH; C-terminus assumed),≥ 10000
